Consider seven compounds from patent publication US8153773B2, “Synthesis and use of anti-reverse phosphorothioate analogs of the messenger RNA cap” (Board of Supervisors of Louisiana State University and …, priority 2007, dated 2012).

One assay has as its target T1, murine eIF4E (28-217) (Mus musculus, UniProt P63073).
T1 construct: (28-217) to phosphorothioate cap analogs, as determined
The assay is described as follows: Binding affinities for eIF4E by fluorescence quenching. On the set-up: Cap - eIF4E KAS: unit not given here. The following applies: for ΔG°: binding free energy calculated from KAS; for ΔG° / KAS: murine eIF4E (28-217); for Cap - eIF4E KAS / KAS: equilibrium association constant; for Cap - eIF4E KAS: mouse eIF4E (amino acids 28-217), 20° C.; for KAS: fluorescence quenching; for affinity for eIF4E (KAS) relative to m2^7,2′-OGpppG: fold higher than the parent ARCA; for affinity for eIF4E (KAS) of D1 relative to D2 diastereomer: fold higher than the D2 member. As to the method: Binding affinities of S analogs for murine eIF4E were determined by fluorescence quenching. Fluorescence titration measurements were carried out on an LS-50B spectrofluorometer (Perkin Elmer Co.) in 50 mM HEPES/KOH (pH 7.2), 100 mM KCl, 0.5 mM EDTA, 1 mM DTT at 20.0±0.2° C. Aliquots of 1 μl increasing concentration of cap analogue solutions were added to 1.4 ml of […] solutions. Fluorescence intensities (excitation at 280 nm with 2.5 nm bandwidth and detection at 337 nm with 4 nm bandwidth and 290 nm cut-off filter) were corrected taking into account sample dilution and the inner filter effect. Equilibrium association constants (KAS) were determined by fitting the theoretical dependence of the fluorescence intensity on the total concentration of cap analogue to the experimental data points according to equation described previously (See A. Niedzwiecka et al., “Biophysical studies of eIF4E cap-binding protein: recognition of mRNA 5′ cap structure and synthetic fragments of eIF4G and 4E-BP1 proteins,” J. Mol. Biol., vol. 319, pp. 615-635 (2002)). The concentration of protein was fitted as a free parameter of equilibrium equation showing amount of “active” protein. The final KAS was calculated as a weighted average of three to ten independent titrations, with the weights taken as the reciprocals of the numerical standard deviations squared. Numerical nonlinear least-squares regression analysis was performed using ORGIN 6.0 (Microcal Software Inc., USA). The Gibbs free energy of binding was calculated from the KAS value according to the standard equation ΔG°=−RTlnKAS.

In assay [1] the target is T2, DcpS (Homo sapiens, UniProt Q96C86).
T2 sequence (Q96C86 1-337): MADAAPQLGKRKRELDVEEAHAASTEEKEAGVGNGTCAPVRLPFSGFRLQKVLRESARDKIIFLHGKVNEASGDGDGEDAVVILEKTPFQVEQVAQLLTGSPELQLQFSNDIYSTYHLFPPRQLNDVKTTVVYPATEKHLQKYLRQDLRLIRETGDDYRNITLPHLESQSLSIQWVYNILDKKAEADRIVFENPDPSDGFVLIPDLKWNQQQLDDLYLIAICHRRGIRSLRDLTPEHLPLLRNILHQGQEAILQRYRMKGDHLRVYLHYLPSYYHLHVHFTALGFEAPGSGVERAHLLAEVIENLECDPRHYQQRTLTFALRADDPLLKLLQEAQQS
The assay is described as follows: Enzymatic hydrolysis by human DcpS. In kind it is biochemical. On the set-up: key: the analogs assigned as resistant remained completely undigested under the applied conditions; the analogs assigned as hydrolyzed were hydrolyzed by DcpS with efficiency comparable to the respective unmodified parent compound. The following applies: conditions giving complete degradation of unmodified parent within 40-90 min, RP HPLC. The protocol:
(§1) Human and nematode DcpS were expressed in Escherichia coli according to the procedures described previously (L. S. Cohen et al., “Nematode m7 GpppG and m3(2,2,7)GpppG decapping: activities in Ascaris embryos and characterization of C. elegans scavenger DcpS,” RNA, vol. 10, pp. 1609-1624 (2004)). Both proteins were stored at −80° C. in 20 mM Tris buffer, pH 7.5, containing 50 mM KCl, 0.2 mM EDTA, 1 mM DTT, 0.5 mM PMSF, and 20% glycerol. An appropriate cap analog at 1 mM concentration was treated with 5.0 or 7.0 μl of DcpS (from human or C. elegans, respectively) in 500 μl of 50 mM TRIS buffer, pH=7.9, containing 20 mM of MgCl2 and 60 mM of (NH4)2SO4 at 37° C. for 60-90 min. Every 15-20 min a 100 μl sample was collected from the reaction mixture and deactivated by incubation in 90° C. for 3 min. Collected samples were analyzed without further treatment by analytical RP HPLC using a linear gradient of methanol in 0.1 M KH2PO4, pH=6.0, from 0-50% within 15 min and UV-detection at 260 nm.
(§2) The new series of S-analogs were subjected to in vitro enzymatic hydrolysis catalyzed by DcpS from both human and C. elegans sources. In all experiments, the corresponding unmodified cap analog was used as a positive control, i.e., m^7GpppG for non-ARCA S-analogs and m2^7,2′-OGpppG for S-ARCAs. The amount of DcpS enzyme was optimized to provide complete degradation of the control substrate within 40-90 min. The samples collected from reaction mixtures at various time intervals were analyzed by RP HPLC (as described in Materials and Methods).
(§3) In Table 4, cap analogs at 4 μM concentration were subjected to enzymatic digestion by DcpS in conditions leading to complete degradation of the unmodified parent compound (i.e. m^7GpppG for non-ARCA S-analogs and m2^7,2′-OGpppG for ARCAs) within 40-90 min. Samples collected from reaction mixtures at various time intervals were analysed by RP HPLC with UV detection at 260 nm as described in Materials and Methods. […] The result was unchanged even if the reaction time was extended to 24 h, various amounts of enzyme were used, and composition of the reaction buffer was modified.

Assay [2] has as its target T3, DcpS (Caenorhabditis elegans, UniProt G5EFS4).
T3 sequence (G5EFS4 1-311): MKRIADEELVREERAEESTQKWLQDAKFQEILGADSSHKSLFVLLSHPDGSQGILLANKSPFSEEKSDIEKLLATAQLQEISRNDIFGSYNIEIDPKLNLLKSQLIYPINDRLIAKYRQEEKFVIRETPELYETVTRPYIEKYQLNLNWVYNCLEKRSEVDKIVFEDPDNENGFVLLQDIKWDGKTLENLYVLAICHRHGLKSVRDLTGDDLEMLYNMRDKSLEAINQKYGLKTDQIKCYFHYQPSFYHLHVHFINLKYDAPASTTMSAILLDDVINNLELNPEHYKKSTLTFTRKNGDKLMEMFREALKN
As to the kind of experiment: Enzymatic hydrolysis by C. elegans DcpS. In kind it is biochemical. On the set-up: key: the analogs assigned as resistant remained completely undigested under the applied conditions; the analogs assigned as hydrolyzed were hydrolyzed by DcpS with efficiency comparable to the respective unmodified parent compound. The following applies: conditions giving complete degradation of unmodified parent within 40-90 min, RP HPLC. As to the method:
as §1, §2, §3

T1 sequence (P63073 28-217): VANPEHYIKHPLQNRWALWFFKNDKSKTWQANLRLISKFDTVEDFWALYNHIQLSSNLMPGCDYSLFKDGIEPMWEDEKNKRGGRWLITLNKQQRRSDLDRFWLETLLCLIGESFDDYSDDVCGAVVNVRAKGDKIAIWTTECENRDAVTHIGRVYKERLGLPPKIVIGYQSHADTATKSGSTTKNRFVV

Consider `CO[C@@H]1[C@H](O)[C@@H](COP(=O)(O)OP(=O)([O-])OP(=O)(O)OC[C@H]2O[C@@H](n3cnc4c(=O)[nH]c(N)nc43)[C@H](O)[C@@H]2O)O[C@H]1n1c[n+](C)c2c(O)nc(N)nc21` [m2^7,2′-OGpppG, reference compound], for which, on murine eIF4E (28-217), the “ΔG°” value is -9.43 kcal/mol, the “Cap - eIF4E KAS” value was determined as 10.8 ± 0.3 and the KAS came out at 10.8 ± 0.3 µM⁻¹. Moreover, the “Resistance to enzymatic hydrolysis by DcpS (human)” value (“Resistance … (human)” below) at DcpS [1] is given as “hydrolyzed”. The “Resistance to enzymatic hydrolysis by DcpS (from C. elegans)” value (“Resistance … (from C. elegans)” below) at DcpS [2] is reported as “hydrolyzed”.

As for m2^7,2′-OGpppsG (D1) [Compound 4a], at murine eIF4E (28-217), the “ΔG°” value is -9.76 kcal/mol, the “Cap - eIF4E KAS” value is reported as 34.3 ± 1.3, the KAS came out at 19.2 ± 0.8 µM⁻¹ and the “affinity for eIF4E (KAS) relative to m2^7,2′-OGpppG” value is listed as 3 fold. Also, on DcpS [1], the “Resistance … (human)” value is on record as “hydrolyzed”. Besides, the “Resistance … (from C. elegans)” value on DcpS [2] is on record as “hydrolyzed”.

Consider m2^7,2′-OGpppsG (D2) [Compound 4b], for which, at murine eIF4E (28-217), the “ΔG°” value was -9.62 kcal/mol, the “Cap - eIF4E KAS” value was 12.9 ± 0.9 and the KAS stood at 15.0 ± 0.6 µM⁻¹. Moreover, the “Resistance … (human)” value on DcpS [1] is reported as “hydrolyzed”. In addition, the “Resistance … (from C. elegans)” value at DcpS [2] is listed as “hydrolyzed”.

On to m2^7,2′-OGppspG (D1) [Compound 5a], for which, at murine eIF4E (28-217), the “ΔG°” value was -10.23 ± 0.02 kcal/mol, the “Cap - eIF4E KAS” value came out at 42.1 ± 1.6, the KAS stood at 43.1 ± 1.4 µM⁻¹ and the “affinity for eIF4E (KAS) of D1 relative to D2 diastereomer” value is recorded as 2 fold. Also, on DcpS [1], the “Resistance … (human)” value is recorded as “hydrolyzed”. The “Resistance … (from C. elegans)” value at DcpS [2] is “hydrolyzed”.

As for m2^7,2′-OGppspG (D2) [Compound 5b], on murine eIF4E (28-217), the “ΔG°” value is -9.77 kcal/mol, the “Cap - eIF4E KAS” value was found to be 18.3 ± 3.4 and the KAS was 19.3 ± 2.2 µM⁻¹. Also, at DcpS [1], the “Resistance … (human)” value is recorded as “hydrolyzed”. Also, at DcpS [2], the “Resistance … (from C. elegans)” value is “hydrolyzed”.

In the case of m2^7,2′-OGpsppG (D1) [Compound 6a], at murine eIF4E (28-217), the “ΔG°” value was -10.12 kcal/mol, the “Cap - eIF4E KAS” value is 19.3 ± 1.8, the KAS came to 35.2 ± 1.1 µM⁻¹ and the “affinity for eIF4E (KAS) of D1 relative to D2 diastereomer” value turned out to be 3 fold. Besides, the “affinity for eIF4E (KAS) relative to m2^7,2′-OGpppG” value at murine eIF4E (28-217) is listed as 3 fold. Moreover, at DcpS [1], the “Resistance … (human)” value is recorded as “resistant”. The “Resistance … (from C. elegans)” value on DcpS [2] is given as “resistant”.

As for m2^7,2′-OGpsppG (D2) [Compound 6b], on murine eIF4E (28-217), the “ΔG°” value was -9.53 kcal/mol, the “Cap - eIF4E KAS” value is 15.4 ± 0.5 and the KAS was 12.9 ± 0.4 µM⁻¹. The “Resistance … (human)” value at DcpS [1] was “resistant”. The “Resistance … (from C. elegans)” value on DcpS [2] is on record as “resistant”.
